# Measurements reported in PubChem BioAssay (NCI).
#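 These data come from cells grown in 96-well plates and exposed to compound for 48 hours at five concentrations. TGI: total growth inhibition.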
# What was measured:
# Test in all cases: growth of human tumour cells (NCI), 48 h
# SR leukemia = test system: SR leukemia
# HOP-62 NSCLC = test system: HOP-62 NSCLC
# COLO 205 colon = test system: COLO 205 colon
# K-562 leukemia = test system: K-562 leukemia
# M14 melanoma = test system: M14 melanoma
# NCI/ADR-RES ovarian = test system: NCI/ADR-RES ovarian
# SNB-19 CNS = test system: SNB-19 CNS
# ACHN renal = test system: ACHN renal
# A498 renal = test system: A498 renal
# 786-0 renal = test system: 786-0 renal
# HL-60(TB) leukemia = test system: HL-60(TB) leukemia
SMILES,TGI (SR leukemia) [µM],TGI (HOP-62 NSCLC) [µM],TGI (COLO 205 colon) [µM],TGI (K-562 leukemia) [µM],TGI (M14 melanoma) [µM],TGI (NCI/ADR-RES ovarian) [µM],TGI (SNB-19 CNS) [µM],TGI (ACHN renal) [µM],TGI (A498 renal) [µM],TGI (786-0 renal) [µM],TGI (HL-60(TB) leukemia) [µM]
CSC12c3cc(C)n(-c4ccc([N+](=O)[O-])cc4)c3CC(C)(C)CN1C(=O)C2Oc1ccccc1 (configuration not stated),> 100,> 100,> 100,> 100,> 100,> 100,> 100,> 100,> 100,> 100,
O=c1nc2n3c4c(cccc4nc-2c(=O)[nH]1)CCC3,,> 100,> 100,> 100,> 100,> 100,> 100,> 100,,> 100,> 100
CN(C)C(C1=C(O)C(c2ccccc2)N(c2ccccc2)C1=O)N1CCOCC1 (configuration not stated),,> 10,> 10,> 10,> 10,> 10,> 10,> 10,> 10,> 10,> 10
COc1cccc(/C=N/n2c(Cc3ccccc3)n[nH]c2=O)c1,,> 100,> 100,> 100,> 100,> 100,> 100,> 100,> 100,> 100,
CCOCCOCCOCc1nc(C#N)c(N)o1,> 100,> 100,> 100,> 100,> 100,> 100,,> 100,> 100,> 100,> 100
N#CC12C(=O)NC(=O)C1(C#N)C1C=CC2CC1 (configuration not stated),> 100,,> 100,,> 100,> 100,> 100,> 100,,> 100,> 100
O=C1/C(=C/c2cccc(Cl)c2)CCCc2ccccc21,35.2,49,38.5,34,29.9,35.9,31.5,29.6,,33.7,30.7
NC1N=C(c2ccc(Cl)cc2)C2=C(N1)c1ccccc1CC2 (configuration not stated),,> 82.7,> 100,> 26.1,> 59.3,> 100,> 100,> 100,> 100,> 73.1,10.6
CN=C1Nc2ccccc2C(=O)N2CSCC12 (configuration not stated),> 100,> 100,> 100,> 100,> 100,> 100,> 100,> 100,> 100,> 100,
FC1(F)[Se]C2C3CCC(C3)C2C1(F)F (configuration not stated),> 100,> 100,> 100,,> 100,> 100,> 100,> 100,> 100,> 100,
N#CC(c1ccccc1)N(CCCCCCN(C(=O)c1ccccc1)C(C#N)c1ccccc1)C(=O)c1ccccc1 (configuration not stated),,,39.8,> 100,> 100,51.2,> 100,> 100,55.9,> 100,> 100
CC(=O)Nc1ccc2c3c(cc(O)c2c1)N(C(=O)CCCC(=O)N1CC(CCl)c2c1cc(O)c1cc(NC(C)=O)ccc21)CC3CCl (configuration not stated),< 0.01,0.0596,0.0215,> 100,0.0175,> 100,,< 0.0112,,0.195,0.0153
COC(=O)[C@]12CC3C=CC1N(C3)C(CBr)c1c2n(S(=O)(=O)c2ccccc2)c2ccccc12 (some centres not stated),,> 100,> 100,0.314,> 100,> 100,,> 100,,> 100,> 100
CO/C=C/C=C(\C#N)C(=O)OC,> 100,> 100,> 100,> 100,,> 100,> 100,> 100,> 100,> 100,
CCOC(=O)c1nc2cc(C(F)(F)F)ccc2nc1Oc1ccc(C#N)cc1,> 100,,> 100,> 100,> 100,> 100,> 100,> 100,> 100,> 100,> 100
CC(=O)O[C@@H]1C[C@]2(C(=O)c3ccccc3)C(=O)C(=O)S[C@]12c1ccccc1,83.1,> 100,> 100,85,> 100,> 100,> 100,> 100,> 100,> 100,
Cc1cc(S(=O)(=O)NC2=NCc3nc4ccccc4n32)c(S)cc1Cl,49.4,,34.4,> 100,63,54.6,> 100,> 100,70.7,47.8,51.8
CSC1=N/C(=C\c2ccc(Cl)cc2)C(=O)N1CN1CCCCC1,> 100,> 100,> 100,> 100,> 100,> 100,,96.2,> 100,> 100,
CC(/C=C/C(=O)NO)=C\C(C)C(=O)c1ccc(N(C)C)cc1 (configuration not stated),,14.6,0.0854,,0.971,,0.654,0.0942,0.257,6.42,2.53
C[C@H](C1CC(C)(O)C(C)(O)C(O)O1)[C@H]1CC[C@H]2[C@@H]3[C@@H]4O[C@@H]4[C@@]4(O)CC=CC(=O)[C@]4(C)[C@H]3CC[C@]12C (some centres not stated),,> 50,> 50,> 50,> 50,> 50,> 50,> 50,> 50,> 50,> 50
CC(C)CC(NC(=O)C(C)(CI)Cc1ccccc1)C(=O)Nc1ccccc1 (configuration not stated),> 100,,> 100,> 100,> 100,> 100,> 100,> 100,> 100,> 100,> 100
